Source: ChEMBL document CHEMBL1201862, “PubChem BioAssay data set” (2004)
The source made the active and inactive calls.

Tests used:
[1] = target: T1, CAAX prenyl protease 2 (Saccharomyces cerevisiae S288c, UniProt Q03530); type: biochemical
T1 sequence (Q03530 whole entry): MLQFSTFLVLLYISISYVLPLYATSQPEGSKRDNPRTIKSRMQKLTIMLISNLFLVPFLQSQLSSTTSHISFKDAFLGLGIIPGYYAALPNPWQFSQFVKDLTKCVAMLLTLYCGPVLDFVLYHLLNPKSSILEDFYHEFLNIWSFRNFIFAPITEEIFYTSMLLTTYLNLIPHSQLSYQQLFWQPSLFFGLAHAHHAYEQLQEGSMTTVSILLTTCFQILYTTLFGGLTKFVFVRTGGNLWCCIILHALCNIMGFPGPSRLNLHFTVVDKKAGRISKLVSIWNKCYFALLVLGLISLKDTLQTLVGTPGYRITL

[2] = target: Trypsin (Sus scrofa, UniProt P00761); experiment: trypsin protease activity blockade – biochemical, quenched peptide fluorescence, cherry-pick, selectivity assay for Rce1 protease inhibitor project, dose response (AID 488789)
Sequence of Trypsin (P00761 whole entry, the tested form may be a part): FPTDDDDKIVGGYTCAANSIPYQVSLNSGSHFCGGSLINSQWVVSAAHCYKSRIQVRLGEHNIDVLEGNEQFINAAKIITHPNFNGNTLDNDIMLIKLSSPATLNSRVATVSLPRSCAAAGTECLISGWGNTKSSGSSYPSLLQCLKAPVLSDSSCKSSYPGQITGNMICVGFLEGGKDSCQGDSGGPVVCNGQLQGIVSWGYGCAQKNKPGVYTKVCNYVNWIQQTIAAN

[3] = target: Type-1 angiotensin II receptor (Homo sapiens, UniProt P30556); experiment: agonist activity at AGTR1 – cell-based, uHTS hits, selectivity assay for APJ receptor agonist project, dose response (AID 488865); type: functional;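 further: beta-arrestin recruitment to AT1 measured by enzyme fragment complementation luminescence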
Sequence of Type-1 angiotensin II receptor (P30556 whole entry, the tested form may be a part): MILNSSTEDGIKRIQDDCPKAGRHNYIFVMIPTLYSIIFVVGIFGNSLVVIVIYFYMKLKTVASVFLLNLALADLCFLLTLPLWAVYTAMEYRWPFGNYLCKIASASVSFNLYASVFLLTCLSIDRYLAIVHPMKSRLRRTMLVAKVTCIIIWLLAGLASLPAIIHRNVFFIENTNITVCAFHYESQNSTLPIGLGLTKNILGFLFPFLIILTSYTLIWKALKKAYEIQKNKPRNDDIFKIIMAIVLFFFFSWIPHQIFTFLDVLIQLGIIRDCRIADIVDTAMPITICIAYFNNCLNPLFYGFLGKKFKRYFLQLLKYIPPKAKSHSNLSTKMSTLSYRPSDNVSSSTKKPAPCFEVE

[4] = target: T2, Nucleotide-binding oligomerization domain-containing protein 2 (Homo sapiens, UniProt Q9HC29); experiment: PubChem AID 2334; type: functional
T2 sequence (Q9HC29 whole entry, the tested form may be a part): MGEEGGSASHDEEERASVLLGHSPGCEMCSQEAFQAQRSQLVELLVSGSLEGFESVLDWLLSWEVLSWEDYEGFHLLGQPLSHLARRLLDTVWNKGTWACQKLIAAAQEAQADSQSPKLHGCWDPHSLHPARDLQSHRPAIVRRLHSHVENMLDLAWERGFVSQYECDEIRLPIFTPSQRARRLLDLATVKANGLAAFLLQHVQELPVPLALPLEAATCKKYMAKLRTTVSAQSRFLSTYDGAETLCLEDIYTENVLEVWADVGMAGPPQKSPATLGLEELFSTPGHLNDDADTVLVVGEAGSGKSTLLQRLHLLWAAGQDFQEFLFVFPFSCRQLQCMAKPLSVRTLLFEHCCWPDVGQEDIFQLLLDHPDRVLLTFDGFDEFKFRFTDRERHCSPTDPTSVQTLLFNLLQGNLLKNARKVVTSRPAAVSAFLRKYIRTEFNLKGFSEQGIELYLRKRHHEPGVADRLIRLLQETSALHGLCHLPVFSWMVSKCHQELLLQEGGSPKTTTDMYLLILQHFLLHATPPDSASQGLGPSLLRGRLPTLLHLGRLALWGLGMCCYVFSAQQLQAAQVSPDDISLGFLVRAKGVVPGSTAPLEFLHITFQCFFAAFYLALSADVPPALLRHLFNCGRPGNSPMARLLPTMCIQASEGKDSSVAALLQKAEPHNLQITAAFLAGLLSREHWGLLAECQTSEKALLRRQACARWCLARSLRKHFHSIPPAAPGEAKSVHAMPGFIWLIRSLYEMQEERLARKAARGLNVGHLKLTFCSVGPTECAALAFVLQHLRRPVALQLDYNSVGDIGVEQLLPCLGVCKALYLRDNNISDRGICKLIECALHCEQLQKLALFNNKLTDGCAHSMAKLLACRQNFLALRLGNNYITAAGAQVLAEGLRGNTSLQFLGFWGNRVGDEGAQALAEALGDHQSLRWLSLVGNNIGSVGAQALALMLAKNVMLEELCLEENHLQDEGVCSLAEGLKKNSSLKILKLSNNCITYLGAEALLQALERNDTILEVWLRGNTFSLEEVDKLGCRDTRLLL

[5] = target: G-protein coupled receptor 35 (Homo sapiens, UniProt Q9HC97); experiment: inhibition of zaprinast-stimulated GPR35 beta-arrestin translocation – imaging, U2OS, beta-arrestin-GFP, zaprinast agonist, primary screen (AID 2058); type: functional;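 further: antagonist potency meaning inhibition of agonist-induced arrestin redistribution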
Sequence of G-protein coupled receptor 35 (Q9HC97 whole entry, the tested form may be a part): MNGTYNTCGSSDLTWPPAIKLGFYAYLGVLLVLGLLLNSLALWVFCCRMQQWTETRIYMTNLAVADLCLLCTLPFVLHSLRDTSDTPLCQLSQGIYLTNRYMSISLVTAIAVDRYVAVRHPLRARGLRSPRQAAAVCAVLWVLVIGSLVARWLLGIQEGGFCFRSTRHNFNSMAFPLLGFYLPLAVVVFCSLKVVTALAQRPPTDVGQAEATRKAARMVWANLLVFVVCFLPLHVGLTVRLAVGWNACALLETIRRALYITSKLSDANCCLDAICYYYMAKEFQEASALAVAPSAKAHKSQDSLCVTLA

[6] = target: T3, Runt-related transcription factor 1/Core-binding factor subunit beta (Homo sapiens, UniProt Q01196+Q13951); experiment: Runt domain/CBFb-SMMHC interaction disruptors – biochemical, TR-FRET (AID 1438); type: protein assay
T3 sequence (Q01196 whole entry, the tested form may be a part): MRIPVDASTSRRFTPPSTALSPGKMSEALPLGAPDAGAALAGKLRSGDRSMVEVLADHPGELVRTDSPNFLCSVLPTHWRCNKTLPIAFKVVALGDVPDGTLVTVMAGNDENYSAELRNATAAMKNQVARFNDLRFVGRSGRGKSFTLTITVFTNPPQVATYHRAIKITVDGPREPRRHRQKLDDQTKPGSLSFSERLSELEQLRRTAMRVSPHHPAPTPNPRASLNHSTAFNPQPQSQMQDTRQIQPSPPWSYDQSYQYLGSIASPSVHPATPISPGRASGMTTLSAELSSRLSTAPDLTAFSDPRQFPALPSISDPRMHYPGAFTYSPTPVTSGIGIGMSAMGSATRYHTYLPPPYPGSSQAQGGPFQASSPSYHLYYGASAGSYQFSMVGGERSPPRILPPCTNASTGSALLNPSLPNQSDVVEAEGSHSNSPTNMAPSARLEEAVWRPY
T3 sequence (Q13951 whole entry, the tested form may be a part): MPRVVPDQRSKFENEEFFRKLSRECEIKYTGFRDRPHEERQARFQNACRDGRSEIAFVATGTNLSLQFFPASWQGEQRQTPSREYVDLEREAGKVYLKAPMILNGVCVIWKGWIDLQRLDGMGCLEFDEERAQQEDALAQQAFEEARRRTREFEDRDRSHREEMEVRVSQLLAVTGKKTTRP

[7] = target: T4, Hexokinase HKDC1 (Homo sapiens, UniProt Q2TB90); experiment: inhibition of HKDC1 glucose phosphorylation – biochemical, W721R variant, dose response (AID 504729); type: functional
T4 sequence (Q2TB90 whole entry): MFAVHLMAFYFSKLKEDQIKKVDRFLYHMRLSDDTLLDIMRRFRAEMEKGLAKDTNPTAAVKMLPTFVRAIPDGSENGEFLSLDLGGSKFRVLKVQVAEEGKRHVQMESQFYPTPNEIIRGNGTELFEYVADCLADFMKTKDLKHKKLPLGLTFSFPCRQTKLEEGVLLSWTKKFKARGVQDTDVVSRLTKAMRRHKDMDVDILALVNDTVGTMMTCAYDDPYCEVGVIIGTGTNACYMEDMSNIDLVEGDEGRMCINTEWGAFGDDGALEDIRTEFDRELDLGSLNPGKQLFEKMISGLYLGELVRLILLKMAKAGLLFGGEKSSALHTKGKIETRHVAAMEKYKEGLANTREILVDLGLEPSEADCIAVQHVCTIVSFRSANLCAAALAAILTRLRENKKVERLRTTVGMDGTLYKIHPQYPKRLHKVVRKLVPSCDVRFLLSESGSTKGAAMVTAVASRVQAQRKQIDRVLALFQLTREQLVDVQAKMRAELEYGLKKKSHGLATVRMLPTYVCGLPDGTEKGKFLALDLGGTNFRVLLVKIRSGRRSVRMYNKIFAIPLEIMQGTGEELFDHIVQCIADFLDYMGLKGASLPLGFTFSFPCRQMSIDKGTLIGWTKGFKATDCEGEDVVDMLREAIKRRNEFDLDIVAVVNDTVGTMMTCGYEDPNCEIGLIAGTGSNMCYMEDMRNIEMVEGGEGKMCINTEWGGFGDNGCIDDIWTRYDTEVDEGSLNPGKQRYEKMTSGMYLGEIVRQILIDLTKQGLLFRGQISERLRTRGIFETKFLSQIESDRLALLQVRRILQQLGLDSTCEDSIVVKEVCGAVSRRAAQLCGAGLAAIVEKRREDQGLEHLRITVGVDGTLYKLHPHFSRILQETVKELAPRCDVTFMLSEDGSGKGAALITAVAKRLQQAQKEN

[8] = test system: HEK293; experiment: cells; type: functional, cell-based; settings: Homo sapiens
[9] = test system: HEK293; experiment: inhibition of NOD1-driven NF-kB reporter – cell-based, luminescence, uHTS, primary screen (AID 1578); type: functional; settings: Homo sapiens
[10] = test system: HEK293; experiment: cells; settings: Homo sapiens
[11] = test system: HEK293; experiment: cells; type: functional, cell-based; settings: Homo sapiens; remark: listed apart in the source
[12] = target: T3, Runt-related transcription factor 1/Core-binding factor subunit beta; experiment: disruptors of Runt domain/CBFb-SMMHC interaction – biochemical, FRET, Cerulean-Runt, Venus-CBFb-SMMHC, uHTS, […] (AID 1434); type: protein assay
[13] = target: Tumor necrosis factor (Homo sapiens, UniProt P01375); experiment: analog potency on TNFa NF-kB signaling – cell-based, revised, SAR follow-up (AID 2337); type: functional
Sequence of Tumor necrosis factor (P01375 whole entry): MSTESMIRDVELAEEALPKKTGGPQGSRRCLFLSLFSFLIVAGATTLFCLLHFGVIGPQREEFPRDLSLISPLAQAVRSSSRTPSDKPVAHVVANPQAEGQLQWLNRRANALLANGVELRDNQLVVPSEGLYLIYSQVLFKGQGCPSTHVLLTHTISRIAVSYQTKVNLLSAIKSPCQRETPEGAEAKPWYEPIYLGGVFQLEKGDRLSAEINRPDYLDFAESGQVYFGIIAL

[14] = target: Heat shock protein HSP 90-alpha (Homo sapiens, UniProt P07900); type: functional, organism-based
[15] = viability loss in THP-1 monocytes – THP-1 cells, cytotoxicity control for Vif-APOBEC3G degradation inhibitor project, dose response (AID 1117359); type: functional; settings: THP-1
[16] = test system: HEK293; experiment: cells; type: functional, cell-based; settings: Homo sapiens; remark: listed apart in the source
[17] = target: T5, Nucleotide-binding oligomerization domain-containing protein 1 (Homo sapiens, UniProt Q9Y239); experiment: blockers of NOD1 pathway activity – revised, SAR follow-up (AID 2333); type: functional
T5 sequence (Q9Y239 whole entry): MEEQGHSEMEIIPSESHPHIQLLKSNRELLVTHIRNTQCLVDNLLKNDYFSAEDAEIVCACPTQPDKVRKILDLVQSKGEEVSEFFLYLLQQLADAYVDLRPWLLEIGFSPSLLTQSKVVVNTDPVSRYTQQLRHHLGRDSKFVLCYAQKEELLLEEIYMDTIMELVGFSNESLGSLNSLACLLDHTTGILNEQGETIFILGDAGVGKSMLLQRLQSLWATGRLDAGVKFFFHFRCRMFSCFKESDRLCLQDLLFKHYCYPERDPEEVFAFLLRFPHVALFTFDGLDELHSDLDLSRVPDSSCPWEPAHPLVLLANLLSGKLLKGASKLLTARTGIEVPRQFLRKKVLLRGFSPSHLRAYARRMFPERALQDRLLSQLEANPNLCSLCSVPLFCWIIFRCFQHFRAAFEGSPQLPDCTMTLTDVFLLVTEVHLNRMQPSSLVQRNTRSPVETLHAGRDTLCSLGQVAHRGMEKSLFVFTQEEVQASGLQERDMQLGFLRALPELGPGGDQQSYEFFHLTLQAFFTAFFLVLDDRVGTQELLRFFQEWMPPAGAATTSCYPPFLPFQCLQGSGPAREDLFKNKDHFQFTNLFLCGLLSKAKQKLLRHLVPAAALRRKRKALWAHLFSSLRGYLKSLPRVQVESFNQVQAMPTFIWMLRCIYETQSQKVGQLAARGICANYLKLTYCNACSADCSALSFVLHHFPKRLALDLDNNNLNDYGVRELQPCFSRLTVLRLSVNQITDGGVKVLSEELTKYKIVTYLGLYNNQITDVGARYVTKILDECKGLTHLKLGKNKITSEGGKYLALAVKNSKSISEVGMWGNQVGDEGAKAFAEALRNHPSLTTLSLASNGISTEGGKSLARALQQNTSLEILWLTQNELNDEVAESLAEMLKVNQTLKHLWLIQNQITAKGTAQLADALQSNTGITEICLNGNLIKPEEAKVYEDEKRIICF

[18] = test system: HEK293; experiment: NOD2 signaling inhibitors in MDP-stimulated cells, cell-based, uHTS, luminescence (AID 2001); type: functional; settings: Homo sapiens
[19] = target: T2, Nucleotide-binding oligomerization domain-containing protein 2; experiment: inhibition of NOD2-driven NF-kB reporter – cell-based, luminescence, uHTS, HEK293 (AID 1566); type: functional
[20] = target: Beta-galactosidase (Escherichia coli, UniProt Q8VNN2); experiment: detection-enzyme interference by beta-gal modulators – biochemical, E. coli enzyme, set 3, artefact control for CCR6 antagonist project, dose response (AID 504712); type: functional
Sequence of Beta-galactosidase (Q8VNN2 whole entry): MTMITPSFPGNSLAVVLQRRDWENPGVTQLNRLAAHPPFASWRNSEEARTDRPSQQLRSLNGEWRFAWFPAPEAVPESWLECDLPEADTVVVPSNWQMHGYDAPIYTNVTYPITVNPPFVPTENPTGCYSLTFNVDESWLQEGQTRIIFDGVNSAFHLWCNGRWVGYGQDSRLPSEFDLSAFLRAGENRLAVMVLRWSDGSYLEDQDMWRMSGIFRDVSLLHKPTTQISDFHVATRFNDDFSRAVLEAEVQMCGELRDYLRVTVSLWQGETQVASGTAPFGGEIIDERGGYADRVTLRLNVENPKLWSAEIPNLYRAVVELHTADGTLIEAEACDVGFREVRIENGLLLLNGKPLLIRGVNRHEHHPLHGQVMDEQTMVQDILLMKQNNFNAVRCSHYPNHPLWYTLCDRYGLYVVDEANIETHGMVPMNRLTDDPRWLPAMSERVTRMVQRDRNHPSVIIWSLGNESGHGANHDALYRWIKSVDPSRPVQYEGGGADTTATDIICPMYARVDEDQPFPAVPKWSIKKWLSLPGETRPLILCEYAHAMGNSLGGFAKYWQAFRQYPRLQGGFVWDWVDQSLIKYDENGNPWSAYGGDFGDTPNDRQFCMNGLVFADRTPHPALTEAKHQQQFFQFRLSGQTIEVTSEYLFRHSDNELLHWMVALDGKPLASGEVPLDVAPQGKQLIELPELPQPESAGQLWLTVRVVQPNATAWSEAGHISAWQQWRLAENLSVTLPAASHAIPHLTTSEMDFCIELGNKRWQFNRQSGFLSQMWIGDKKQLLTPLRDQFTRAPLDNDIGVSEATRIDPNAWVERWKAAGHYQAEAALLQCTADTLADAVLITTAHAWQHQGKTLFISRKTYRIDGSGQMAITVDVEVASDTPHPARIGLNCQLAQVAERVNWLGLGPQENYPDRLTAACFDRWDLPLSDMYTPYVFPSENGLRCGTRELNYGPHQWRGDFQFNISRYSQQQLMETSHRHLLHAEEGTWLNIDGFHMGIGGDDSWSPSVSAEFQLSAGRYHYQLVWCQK

[21] = Luminescence Cell-Based Dose Response HTS to Identify Inhibitors of Luciferase Translation or Activity in H4-C Neuroglioblastoma Cells. [Related pubchem assays: 1813 (Primary HTS), 1827 (Project Summary)]; type: functional
[22] = Luminescence Cell-Based Dose Response HTS to Identify Inhibitors of 5'UTR Stem-Loop Driven Prion Protein mRNA Translation in H4 Neuroglioblastoma Cells. [Related pubchem assays: 1827 (Project Summary), 1813 (Primary HTS)]; type: functional
[23] = Luminescence Cell-Based Dose Response HTS to Identify Activators of Luciferase Translation or Activity in H4-C Neuroglioblastoma Cells. [Related pubchem assays: 1829 (Project Summary), 1814 (Primary HTS)]; type: functional
[24] = Luminescence Cell-Based Dose Response HTS to Identify Activators of 5'UTR Stem-Loop Driven Prion Protein mRNA Translation in H4-C Neuroglioblastoma Cells. [Related pubchem assays: 1829 (Project Summary), 1814 (Primary HTS)]; type: functional
[25] = alpha-synuclein stem-loop luciferase translation blockers – H4 neuroglioma cells, luminescence, confirmation (AID 1988); type: functional, cell-based
[26] = test system: BJ; experiment: cells; type: functional, cell-based; settings: Homo sapiens
[27] = test system: BJ; experiment: BJ-TERT-LT-ST fibroblast viability loss – cell-based, RAS-independent, luminescence, dose response (AID 1935); type: functional; settings: Homo sapiens;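 further: BJ fibroblasts immortalized with TERT plus LT and ST oncogenes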
[28] = Luminescence Cell-Based Dose HTS Response to Identify Inhibitors of 5'UTR Stem-Loop Driven Prion Protein mRNA Translation in H4-C Neuroglioblastoma Cells. [Related pubchem assays (depositor defined):AID1814, AID1827]; type: functional
[29] = Luminescence Cell-Based Dose Retest to Confirm Activators of 5'UTR Stem-Loop Driven Alpha-Synuclein mRNA Translation in H4 Neuroglioblastoma Cells. [Related pubchem assays (depositor defined):AID1813, AID1829]; type: functional
[30] = luciferase reporter signal suppression in cells – H4 neuroglioma cells, luminescence, dose response (AID 1990); type: functional, cell-based
[31] = DRD fibroblast viability loss – cell-based, non-viral oncogenic, luminescence, dose response (AID 1934); type: functional; settings: Homo sapiens
[32] = test system: BJ; experiment: BJ-TERT fibroblast viability loss – cell-based, RAS-independent, luminescence, dose response (AID 1933); type: functional; settings: Homo sapiens
[33] = Luminescence Cell-Based Dose Confirmation HTS to Identify Inhibitors of 5'UTR Stem-Loop Driven Alpha-Synuclein mRNA Translation in H4 Neuroglioblastoma Cells. [Related pubchem assays: 1827 (Project Summary), 1813 (Primary HTS)]; type: functional
[34] = target: Sphingosine 1-phosphate receptor 4 (Homo sapiens, UniProt O95977); experiment: Late-stage fluorescence dose response cell-based assay to identify agonists of the Sphingosine 1-Phosphate Receptor 4 (S1P4): purchased compounds EC50. [Related pubchem assays (depositor defined):AID1509, AID1523, AID1563, AID1686, AID1701, AID1801]; type: functional
Sequence of Sphingosine 1-phosphate receptor 4 (O95977 whole entry): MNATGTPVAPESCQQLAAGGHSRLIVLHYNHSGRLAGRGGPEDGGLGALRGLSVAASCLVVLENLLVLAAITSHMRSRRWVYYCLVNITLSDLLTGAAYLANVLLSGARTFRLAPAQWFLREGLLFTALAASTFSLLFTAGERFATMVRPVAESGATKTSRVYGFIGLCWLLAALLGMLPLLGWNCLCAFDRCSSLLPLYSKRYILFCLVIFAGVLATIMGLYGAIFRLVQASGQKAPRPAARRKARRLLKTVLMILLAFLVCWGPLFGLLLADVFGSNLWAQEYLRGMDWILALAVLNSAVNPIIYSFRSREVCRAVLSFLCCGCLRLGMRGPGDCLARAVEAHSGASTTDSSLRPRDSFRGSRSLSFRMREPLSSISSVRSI

[35] = target: Coagulation factor XII (Homo sapiens, UniProt P00748); experiment: Factor XIIa Dose Response Confirmation from Single Well HTS. [Related pubchem assays (depositor defined):AID701]; type: functional
Sequence of Coagulation factor XII (P00748 20-372 limits assumed): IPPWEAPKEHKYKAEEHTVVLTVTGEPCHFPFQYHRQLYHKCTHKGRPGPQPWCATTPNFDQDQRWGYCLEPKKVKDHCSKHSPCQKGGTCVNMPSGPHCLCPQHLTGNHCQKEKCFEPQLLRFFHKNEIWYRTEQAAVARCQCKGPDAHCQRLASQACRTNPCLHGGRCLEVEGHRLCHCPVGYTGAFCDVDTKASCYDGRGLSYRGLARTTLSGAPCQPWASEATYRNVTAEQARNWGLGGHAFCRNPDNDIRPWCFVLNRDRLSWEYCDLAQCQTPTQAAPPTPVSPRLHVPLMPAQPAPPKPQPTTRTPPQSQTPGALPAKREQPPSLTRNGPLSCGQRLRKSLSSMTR
Sequence of Coagulation factor XII (P00748 373-615 limits assumed): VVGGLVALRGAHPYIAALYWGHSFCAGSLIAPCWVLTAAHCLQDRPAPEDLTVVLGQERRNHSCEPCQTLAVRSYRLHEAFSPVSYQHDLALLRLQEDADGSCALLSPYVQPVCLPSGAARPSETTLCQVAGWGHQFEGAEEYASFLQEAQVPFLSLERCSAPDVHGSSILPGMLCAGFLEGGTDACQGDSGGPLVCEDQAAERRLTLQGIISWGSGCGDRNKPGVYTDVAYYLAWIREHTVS

Compound: CCC(C)NC(=O)CSC1=Nc2ccccc2C2=NC(CC(=O)NCc3ccc(F)cc3)C(=O)N12 (stereo not drawn)
- AC50 [1]: 15.8 µM (active)
- AC50 [2]: 16.1 µM (active)
- EC50 [3]: > 100 µM (inactive)

Compound: CCOC(=O)C1=C(Cc2ccc(Cl)cc2)C(=O)c2ccccc2C1=O
- IC50 [4]: 7.01 µM (active)
- IC50 [5]: 4.3 µM (active)
- IC50 [6]: 43.6 µM (active)
- IC50 [7]: 12.2 µM (active)
- IC50 [8]: > 20 µM (inactive)
- EC50 [9]: 12.2 µM (active)
- IC50 [10]: > 20 µM (inactive)
- IC50 [11]: > 20 µM (inactive)
- IC50 [12]: > 100 µM (inactive)
- IC50 [13]: 6.24 µM (active)
- AC50 [14]: 27.2 µM (active)
- CC50 [15]: 19.4 µM (active)
- IC50 [16]: > 20 µM (inactive)
- IC50 [17]: 5.78 µM (active)
- IC50 [18]: > 20 µM (inactive)
- EC50 [19]: > 20 µM (inactive)
- IC50 [20]: > 66.6 µM (inactive)

Compound: COc1ccc2c(c1)C(C)=CC(C)(C)N2S(=O)(=O)c1ccc(NC(C)=O)cc1
- EC50 [21]: 2.91 µM (active)
- EC50 [22]: > 60 µM (not active)
- EC50 [23]: 2.91 µM (inconclusive)
- EC50 [24]: 1.69 µM (inconclusive)
- EC50 [25]: 0.514 µM (active)
- EC50 [26]: 5.92 µM (active)
- EC50 [27]: 7.05 µM (inconclusive)
- EC50 [28]: 1.69 µM (active)
- EC50 [29]: 11.6 µM (inconclusive)
- EC50 [30]: 14.4 µM (active)
- EC50 [31]: 1.06 µM (inconclusive)
- EC50 [32]: 1.89 µM (inconclusive)
- EC50 [33]: 11.6 µM (active)

Compound: CCc1ccc(NC(=O)C(C)OC(=O)c2c(C)nn(Cc3ccccc3)c2Cl)cc1 (stereo not drawn)
- EC50 [22]: > 120 µM (not active)
- EC50 [34]: > 50 µM (inactive)
- EC50 [25]: > 120 µM (not active)
- EC50 [30]: 16.4 µM (active)

Compound: COc1cc(OC)c2c(N)c(C#N)c(C(F)(F)C(F)(F)F)nc2c1
- IC50 [35]: > 50 µM (inactive)
